Data on five molecules can be found in patent US6538000B1, “Tricyclic dihydropyrimidine potassium channel openers” (Abbott Laboratories, priority 1999, dated 2003).

The target of series [1] is potassium channels (Cavia porcellus, UniProt A0A286XYR9). Nature of the series: Membrane hyperpolarization (MHP) assay, DiBAC(4)3 FLIPR, primary cultured guinea-pig urinary bladder (GPB) cells. In kind it is cell-based. The procedure: Compounds were evaluated for potassium channel opening activity using primary cultured guinea-pig urinary bladder (GPB) cells.
Chain of potassium channels (Cavia porcellus, UniProt A0A286XYR9) (A0A286XYR9 1-1546): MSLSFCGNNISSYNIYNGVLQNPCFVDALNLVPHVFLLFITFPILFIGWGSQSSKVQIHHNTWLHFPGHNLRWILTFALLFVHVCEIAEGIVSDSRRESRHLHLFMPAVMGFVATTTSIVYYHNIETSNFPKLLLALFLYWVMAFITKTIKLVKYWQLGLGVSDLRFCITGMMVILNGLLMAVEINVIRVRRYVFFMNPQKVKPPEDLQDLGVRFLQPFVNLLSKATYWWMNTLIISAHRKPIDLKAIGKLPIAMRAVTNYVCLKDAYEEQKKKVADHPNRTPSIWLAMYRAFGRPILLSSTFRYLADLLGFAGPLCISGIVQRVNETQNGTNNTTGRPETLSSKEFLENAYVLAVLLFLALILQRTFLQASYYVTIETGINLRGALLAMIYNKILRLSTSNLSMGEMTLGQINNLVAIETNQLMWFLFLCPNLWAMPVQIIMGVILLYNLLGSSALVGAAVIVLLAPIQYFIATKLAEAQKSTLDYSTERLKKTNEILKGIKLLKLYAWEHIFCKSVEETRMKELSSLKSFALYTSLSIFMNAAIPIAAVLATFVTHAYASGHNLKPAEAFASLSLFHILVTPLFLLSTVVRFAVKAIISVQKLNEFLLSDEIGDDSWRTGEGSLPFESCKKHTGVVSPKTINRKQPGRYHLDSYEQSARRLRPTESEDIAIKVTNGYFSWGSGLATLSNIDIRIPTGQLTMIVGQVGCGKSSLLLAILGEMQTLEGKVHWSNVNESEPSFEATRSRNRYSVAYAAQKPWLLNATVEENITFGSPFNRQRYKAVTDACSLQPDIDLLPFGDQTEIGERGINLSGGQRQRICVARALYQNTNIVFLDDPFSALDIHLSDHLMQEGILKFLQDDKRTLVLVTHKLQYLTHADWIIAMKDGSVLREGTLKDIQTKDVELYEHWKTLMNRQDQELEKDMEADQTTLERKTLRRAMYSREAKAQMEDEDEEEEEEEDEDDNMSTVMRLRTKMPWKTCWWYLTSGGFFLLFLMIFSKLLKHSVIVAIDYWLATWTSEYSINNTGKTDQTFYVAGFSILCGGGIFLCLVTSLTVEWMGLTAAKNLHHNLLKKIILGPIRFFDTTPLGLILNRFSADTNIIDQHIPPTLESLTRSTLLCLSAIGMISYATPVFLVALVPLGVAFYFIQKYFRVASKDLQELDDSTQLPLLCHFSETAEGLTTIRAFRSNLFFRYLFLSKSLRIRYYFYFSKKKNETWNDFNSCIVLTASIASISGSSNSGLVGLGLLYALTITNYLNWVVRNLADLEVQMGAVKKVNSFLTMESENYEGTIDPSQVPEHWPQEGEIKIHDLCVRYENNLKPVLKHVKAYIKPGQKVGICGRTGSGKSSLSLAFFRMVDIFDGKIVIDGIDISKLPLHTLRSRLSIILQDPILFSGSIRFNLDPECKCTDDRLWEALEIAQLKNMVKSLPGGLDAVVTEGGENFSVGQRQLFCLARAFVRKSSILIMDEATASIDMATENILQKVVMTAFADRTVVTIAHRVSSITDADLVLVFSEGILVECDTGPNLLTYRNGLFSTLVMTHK
Chain of potassium channels (Cavia porcellus, UniProt A0A286XYR9) (Q9JHJ9 whole entry partner): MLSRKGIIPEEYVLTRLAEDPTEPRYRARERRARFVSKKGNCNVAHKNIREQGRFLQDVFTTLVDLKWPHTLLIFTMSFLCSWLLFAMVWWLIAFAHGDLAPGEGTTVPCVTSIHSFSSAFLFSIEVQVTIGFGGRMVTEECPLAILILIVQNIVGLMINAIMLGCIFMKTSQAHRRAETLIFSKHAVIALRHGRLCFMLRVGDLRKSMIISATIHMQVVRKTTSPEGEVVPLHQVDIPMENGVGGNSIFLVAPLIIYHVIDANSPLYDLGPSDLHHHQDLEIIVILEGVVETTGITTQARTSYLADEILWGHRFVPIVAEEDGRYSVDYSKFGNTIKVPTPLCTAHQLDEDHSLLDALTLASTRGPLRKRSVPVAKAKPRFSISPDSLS
For the preparation of urinary bladder smooth muscle cells, urinary bladders were removed from male guinea-pigs (Hartley, Charles River, Wilmington, Mass.) weighing 300-400 g and placed in ice-cold Ca^2+-free Krebs solution (Composition, mM: KCl, 2.7; KH2PO4, 1.5; NaCl, 75; Na2HPO4, 9.6; Na2HPO4.7H2O, 8; MgSO4, 2; glucose, 5; HEPES, 10; pH 7.4). Cells were isolated by enzymatic dissociation as previously described with minor modifications in (Klockner, U. and Isenberg, G., Pflugers Arch. 1985, 405, 329-339), hereby incorporated by reference. […]
Functional activity at potassium channels was measured by evaluating changes in membrane potential using the bis-oxonol dye DiBAC(4)3 (Molecular Probes) in a 96-well cell-based kinetic assay system, Fluorescent Imaging Plate Reader (FLIPR) (K. S. Schroeder et al., J. Biomed. Screen., v. 1 pp. 75-81 (1996)), hereby incorporated by reference. […] With increasing membrane potential (for example, K^+ depolarization), the probe further partitions into the cell; this is measured as an increase in fluorescence due to dye interaction with intracellular lipids and proteins. Conversely, decreasing membrane potential (hyperpolarization by potassium channel openers) evokes a decrease in fluorescence. […]

In series [2] the target is potassium channels (Sus scrofa, UniProt F1SR11). Nature of the series: Functional potassium channel opening activity in isolated bladder strips (field-stimulated twitch). Set-up: species or system Landrace pig. The following applies: for Emax: pig, read-out: Efficacy (% P1075), Landrace pig bladder strips, maximal efficacy relative to P1075. The procedure: Compounds of the present invention were evaluated for functional potassium channel opening activity using tissue strips obtained from Landrace pig bladders.
Landrace pig bladders were obtained from female Landrace pigs of 9-30 kg. Landrace pigs were euthanized with an intraperitoneal injection of pentobarbital solution, Somlethal®, J. A. Webster Inc., Sterling Mass. The entire bladder was removed and immediately placed into Krebs Ringer bicarbonate solution (composition, mM: NaCl, 120; NaHCO3, 20; dextrose, 11; KCl, 4.7; CaCl2, 2.5; MgSO4, 1.5; KH2PO4, 1.2; K2EDTA, 0.01, equilibrated with 5% CO2/95% O2 pH 7.4 at 37° C.). Propranolol (0.004 mM) was included in all of the assays to block β-adrenoceptors. The trigonal and dome portions were discarded. Strips 3-5 mm wide and 20 mm long were prepared from the remaining tissue cut in a circular fashion. The mucosal layer was removed. One end was fixed to a stationary glass rod and the other to a Grass FT03 transducer at a basal preload of 1.0 gram. Two parallel platinum electrodes were included in the stationary glass rod to provide field stimulation of 0.05 Hz, 0.5 milli-seconds at 20 volts. This low frequency stimulation produced a stable twitch response of 100-500 centigrams. Tissues were allowed to equilibrate for at least 60 minutes and primed with 80 mM KCl. A control concentration response curve (cumulative) was generated for each tissue using the potassium channel opener P1075 as the control agonist. […] After a 60 minute rinsing period, a concentration response curve (cumulative) was generated for the test agonist in the same fashion as that used for the control agonist P1075. The maximal efficacy of each compounds (expressed as % relative to P1075) is reported. […] Agonist potencies were also expressed as an index relative to P1075. The index was calculated by dividing the ED50 for P1075 by the ED50 for the test agonist in a given tissue. […]

Usually EC50 stands for the concentration at which the effect is half-maximal. `O=C1CCCC2=C1C(c1ccc(Cl)c(Cl)c1)n1ncc(Br)c1N2` (stereo not drawn) [Example 48, 3-Bromo-9-(3,4-dichlorophenyl)-5,6,7,9-tetrahydropyrazolo[5.1-b]quinazolin-8(4H)-one]: the “Maximal Response (% P1075)” value at potassium channels [1] (maximal steady-state hyperpolarization in GPB cells, normalized to 10 μM P1075 = 100%) is on record as 113 % P1075. Also, at potassium channels [1] (membrane hyperpolarization in GPB cells, concentration that elicits 50% of the maximal response for the test sample), the response was half-maximal at 33 nM (EC50).
The melting point is the temperature, or range, at which the solid turns liquid. `O=C1CSCC2=C1C(c1ccc(F)c(Br)c1)n1nccc1N2` (stereo not drawn) [Example 2, 9-(3-Bromo-4-fluorophenyl)-5,9-dihydro-4H-pyrazolo[1,5-a]thiopyrano[3,4-d]pyrimidin-8(7H)-one] had a melting point of 160 to 163 °C.
On to `O=C1CCCC2=C1C(c1ccc(Br)c(F)c1)n1nccc1N2` (stereo not drawn) [Example 1, 9-(4-Bromo-3-fluorophenyl)-5,6,7,9-tetrahydropyrazolo[5,1-b]quinazolin-8(4H)-one], for which the Emax on potassium channels [2] came out at 96%.
In the case of `CCC(C)(C)NC(=NC#N)Nc1cccnc1` [Example P1075, N″-cyano-N-(tert-pentyl)-N′-(3-pyridinyl)guanidine, reference compound], the “effect on stimulated twitch / stimulated contractions of the bladder” value on potassium channels [2] (field stimulation 0.05 Hz, 0.5 ms, 20 volts, P1075 10^−9 to 10^−5 M) is on record as “completely eliminated the stimulated twitch”.
With `O=C1CCCC2=C1C(c1ccc(F)c(Br)c1)n1nccc1N2` (single isomer, unassigned; (-)) [Example 15, (−) 9-(3-Bromo-4-fluorophenyl)-5,6,7,9-tetrahydropyrazolo[5,1-b]quinazolin-8(4H)-one], on potassium channels [2], the Emax came out at 100%.
